From patent US9682931B2, “Aryloyl(oxy or amino)pentafluorosulfanylbenzene compound, pharmaceutically acceptable salt thereof, and prodrugs thereof” (UBE INDUSTRIES, LTD., priority 2013, dated 2017)
In brackets after ≈: the same amount, converted by molar mass.

Key:
MKN1 (stomach cancer) = assay: Evaluation of anticancer action, cell proliferation inhibition (WST-8), MKN1; assay type: cell-based; details: Homo sapiens, MKN-1, MKN1, about 72 hours
Text: (§1) The cell proliferation inhibitory effects of a test substance (Compound 3) on various types of cancer cells were examined.
(§2) 1. Measuring Reagent and Analysis Software
(§3) WST-8 Kit (Cat. No. 260-96165 or 260-96162; manufactured by Kishida Chemical Co., Ltd.) for counting cell number
(§4) Software for graph making and measurement of GI50 value: XLfit 5.2 (ID Business Solutions Ltd.)
(§5) 2. Cells and Culture Conditions
(§6) Five types of cells and medium (the following Table) were used. The cells were obtained from the Research Resource Bank of the Human Sciences Foundation.
(§7) On the day when a sample was to be added, the sample was weighed and a medium for each type of cells was added so as to be 500 μg/mL. Sonication was performed while warming at 37° C. for 60 minutes to be dissolved. Then, filtration was performed by a 0.22 m-filter. The 500 μg/mL-solution was diluted with the medium for each type of cells to prepare 200 μg/mL, 60 μg/mL, 20 μg/mL, 6 μg/mL, 2 μg/mL, 0.6 μg/mL and 0.2 μg/mL solutions, which were specified as two-fold concentration test solutions (the final concentrations of the test substance were 250 µg/mL, 100 μg/mL, 30 μg/mL, 10 μg/mL, 3 μg/mL, 1 μg/mL, 0.3 μg/mL, […], respectively). […]
(§8) (8) Absorbance values at 450 nm and 650 nm were measured to calculate O.D. 450 and O.D. 650. […]
(§9) ODdrug-exposed wells: absorbance of a well containing a sample […]

A549 (lung cancer) = assay: Evaluation of anticancer action, cell proliferation inhibition (WST-8), A549; assay type: cell-based; details: Homo sapiens, A549, about 72 hours
Text: as §1, §2, §3, §4, §5, §6, §7, §8, §9

RBL-2H3 cells = assay: Degranulation suppression test of RBL-2H3 cells (β-hexosaminidase release, IgE stimulation); assay type: cell-based, Rat; details: for Degranulation ratio: relative to untreated control, n = 4
Experimental: 1. Degranulation Suppression Test of RBL-2H3 Cells
As to Compound 3, the granule release (degranulation) suppression action on RBL-2H3 cell by IgE stimulation, which is a cell model for an allergic reaction, was examined.
A test substance (50 mg) was dissolved by adding 1 mL of 50 vol % ethanol to the test substance to obtain a concentration of 50 mg/mL. The solution thus obtained was diluted with a buffer solution. […] The concentrations were all indicated as the concentrations in cell supernatants.
β-Hexosaminidase abundantly present in granules of RBL-2H3 cells was used as the index of degranulation caused by IgE stimulation, and p-nitrophenol produced by the reaction with a substrate was measured by colorimetric assay. The activity values of β-hexosaminidase present within cells and released in the culture supernatant were determined to obtain the release rate of β-hexosaminidase, and then, a degranulation rate relative to an untreated control was obtained. Based on this, degranulation inhibitory action was evaluated.
Main test conditions and outline of the operation will be described below.
Cell: Rat basophil leukemic cell, RBL-2H3 [Human Sciences Foundation]
Stimulation of degranulation: Anti-DNP-IgE antibody, DNP labeled albumin [Sigma-Aldrich Corporation]
Degranulation Index: 3-Hexosaminidase activity
Measurement apparatus: Microplate reader, SpectraMax M2c • [Molecular Devices Corporation]
In this test, an action to suppress granule release (degranulation) in mast cells caused by an IgE antigen stimulation is evaluated. Thus, the smaller the degranulation ratio is, the stronger the effect is […]

## O=C(Nc1ccc(S(F)(F)(F)(F)F)cc1)c1cc(O)c(O)c(O)c1 [Compound 3, 4-(3,4,5-trihydroxybenzoylamino)pentafluorosulfanylbenzene]
MKN1 (stomach cancer)
  GI50: 5.1 µg/mL (≈ 13.7 µM)
A549 (lung cancer)
  GI50: 13.3 µg/mL (≈ 35.8 µM)
RBL-2H3 cells; RBL-2H3 cells, any concentration
  cytotoxicity (visual): not visually confirmed
RBL-2H3 cells; sample 1 μg/mL
  Degranulation ratio: 91%
RBL-2H3 cells; sample 10 μg/mL
  Degranulation ratio: 85%
RBL-2H3 cells; sample 25 μg/mL
  Degranulation ratio: 73%
RBL-2H3 cells; sample 50 μg/mL in cell supernatant
  Degranulation ratio: 35%
RBL-2H3 cells; sample 100 μg/mL in cell supernatant
  Degranulation ratio: 19%
